Reference: paper PMC9181852, “In Vivo and In Vitro Biological Evaluation and Molecular Docking Studies of Compounds Isolated from Micromeria biflora (Buch. Ham. ex D.Don) Benth” (Molecules, 2022)

How the values were obtained:
COX-1 = COX-1 (Homo sapiens, UniProt P23219); experiment: In vitro COX-1 inhibition (screening kit)
Experimental: (§4) The in vitro inhibition of cyclooxygenases (COX-1 and COX-2) by the isolated compounds was determined using screening kits.

[1] = tested on: LCMK-2 monkey kidney cells; experiment: Cytotoxicity MTT assay, LCMK-2 monkey kidney cells; type: cell-based
Experimental: (§1) Salicylalazine isolated from M. biflora was also screened for in vitro cytotoxicity using mouse hepatocytes and LCMK-2 monkey kidney cells. According to the MTT assay, salicylalazine was incubated for 24 h and the viability of the cell was identified. In this screening test, the cells were kept in RPMI 1640 medium as per the reported method. The medium used in this experiment consisted of streptomycin sulfate, NaHCO3 solution, and penicillin sodium salt, and FBS in proper proportion. The initial seeding of 8.6 × 10^3 mice hepatocytes and 7.1 × 10^3 LCMK-2 cells was indicated in 96 well plates. The cells were preserved with salicylalazine at different concentrations, and vehicle (0.2% DMSO), and hatching was performed for […] by MTT following our previously reported method.

COX-2 = molecular target: T1, COX-2 (Homo sapiens, UniProt P35354); experiment: In vitro COX-2 inhibition (screening kit); type: biochemical
T1 construct: purchased
T1 sequence (P35354 18-604): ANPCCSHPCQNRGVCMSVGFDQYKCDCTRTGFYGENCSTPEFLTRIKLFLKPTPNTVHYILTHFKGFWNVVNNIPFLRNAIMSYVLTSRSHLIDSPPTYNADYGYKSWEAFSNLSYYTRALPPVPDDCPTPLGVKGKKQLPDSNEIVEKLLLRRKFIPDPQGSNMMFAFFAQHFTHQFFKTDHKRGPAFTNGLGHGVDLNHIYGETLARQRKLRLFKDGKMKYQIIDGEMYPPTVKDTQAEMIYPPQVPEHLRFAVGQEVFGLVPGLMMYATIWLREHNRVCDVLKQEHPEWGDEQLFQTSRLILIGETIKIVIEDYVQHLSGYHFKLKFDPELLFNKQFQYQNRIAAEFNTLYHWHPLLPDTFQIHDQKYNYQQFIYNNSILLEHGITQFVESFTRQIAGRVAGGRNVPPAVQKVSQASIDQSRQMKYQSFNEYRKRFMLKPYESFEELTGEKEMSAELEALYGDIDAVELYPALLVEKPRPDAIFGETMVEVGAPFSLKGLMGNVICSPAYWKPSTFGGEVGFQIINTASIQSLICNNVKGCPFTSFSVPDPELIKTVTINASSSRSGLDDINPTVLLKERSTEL
Experimental: as §4

mouse hepatocytes = experiment: Cytotoxicity MTT assay, mouse hepatocytes; type: cell-based
Experimental: as §1

[2] = Carrageenan-induced paw edema; type: in vivo, mice
Experimental: (§2) Healthy mice (Balb/c) with weight ranging from 20 to 22 g and ages 9 to 10 weeks were used in this screening model. The grown animals were provided with standard laboratory conditions such as standard food and water ad libitum. The in vivo biological screening test was performed at the Department of Veterinary Medicine, College of Agriculture and Veterinary Medicine, Qassim University Buraydah, Saudi Arabia, as well as Swabi University, KP, Pakistan, according to published procedures.
This model was used to identify the anti-inflammatory potency of salicylalazine purified from M. biflora according to the standard method. The animals were randomly distributed into different groups depending on the treatment. Group I was treated with distilled water (10 mL/kg), which acted as a negative control. […] After 30 min of the intraperitoneal subjection of the mentioned administrations, 1% carrageen (0.05 mL) was […] administrated in the right paw of each animal. The inflammation in every animal was recoded after 1–5 h of carrageenan treatment using a plethysmometer (LE 7500 plan lab S.L). The anti-inflammatory action of salicylalazine was measured using the following formula: Activity %=A−B /A×100 where A is the paw edema of the control group, and B is the paw edema of the screening group.

[3] = Inclined plane muscle relaxation model; type: in vivo, mice (Balb/c)
Experimental: as §2
An inclined plane screening procedure was adapted to identify the muscle relaxation effects of salicylalazine isolated from M. biflora according to a reported procedure. The inclined plane used in screening contained two plywood boards, and these boards were connected, where one board was at 60 0 from the base while the other one was aligned from the base. Various groups of animals were distributed into several groups; each group comprised six animals (n = 6). Animals in each group were administered water (10 mL/kg), standard drug (diazepam, 1 mg/kg), and salicylalazine at different doses of 2.5, 5, 10, 15, and 20 mg/kg, i.p. After various time intervals, such as 30, 60, and 90 min post-administration, animals were allowed on the higher part of the inclined plane for 30 s to drop or hang.

HepG2 = experiment: Anticancer MTT assay, HepG2; type: cell-based; conditions: Homo sapiens, 24 h
Experimental: (§3) The MTT assay was used to assess the cytotoxicity of salicylalazine isolated from M. biflora as per the previously documented method. For the MTT assay, Gibco BRL was combined with 100 µg/mL of penicillin sodium salts, 10% FBS (Gibco), and sodium carbonate (2 mg/mL). The prepared medium was used to keep three human cancer cell lines: human hepatoma (HepG2), human A498, and renal NCI-h226 non-small cell lung). Mouse hepatocytes, including HepG2 and HepG-R, were planted in 96-well plates. The cell lines were preserved with salicylalazine (1.5–100 μM), hatched for 24 h, and then they were tracked using the MTT procedure^14. This method was used for all tested cell lines. The IC50 value of salicylalazine in different cell lines was calculated from the concentration-effect curves. The standard drug used in this experiment was paclitaxel.

NCI-H226 = experiment: Anticancer MTT assay, NCI-H226; type: cell-based; conditions: Homo sapiens, 24 h
Experimental: as §3

COX-1, sequence (P23219 24-599): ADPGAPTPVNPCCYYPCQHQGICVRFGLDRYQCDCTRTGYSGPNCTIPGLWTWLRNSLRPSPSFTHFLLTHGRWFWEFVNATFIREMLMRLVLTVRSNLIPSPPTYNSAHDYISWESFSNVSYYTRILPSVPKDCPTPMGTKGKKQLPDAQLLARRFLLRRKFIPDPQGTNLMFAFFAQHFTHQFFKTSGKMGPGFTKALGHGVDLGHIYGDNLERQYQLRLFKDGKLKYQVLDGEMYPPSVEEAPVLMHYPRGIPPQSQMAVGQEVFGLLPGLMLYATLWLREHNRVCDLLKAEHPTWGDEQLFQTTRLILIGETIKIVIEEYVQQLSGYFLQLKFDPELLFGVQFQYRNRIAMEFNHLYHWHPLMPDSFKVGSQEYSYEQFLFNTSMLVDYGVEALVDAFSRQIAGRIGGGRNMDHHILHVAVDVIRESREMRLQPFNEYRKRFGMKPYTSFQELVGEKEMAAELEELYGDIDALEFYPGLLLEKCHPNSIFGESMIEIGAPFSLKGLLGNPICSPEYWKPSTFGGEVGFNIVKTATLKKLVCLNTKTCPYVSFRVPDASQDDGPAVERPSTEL

With `Oc1ccccc1/C=N/N=C/c1ccccc1O` [Salicylalazine, salicylalazine] the IC50 (COX-1) was 44.1 ± 1.18 µM, the “In vitro cytotoxicity (MTT)” value [1] was “did not exhibit any considerable cytotoxicity” and the IC50 (COX-2) was 9.08 ± 0.11 µM. The SI (COX-2; SI = IC50 (COX-1)/IC50 (COX-2)) was 4.85, the “In vitro cytotoxicity (MTT)” value (mouse hepatocytes) was “did not exhibit any considerable cytotoxicity” and the “Attenuation of carrageenan-induced paw edema (maximum)” value ([2]; 15 mg/kg, after 3 h) was 80.98%. The “Inhibition of carrageenan-induced paw edema (maximum)” value ([2]; 20 mg/kg, 3 h after carrageenan) was 90.22%, the “Inhibition of carrageenan-induced paw edema” value ([2]; 20 mg/kg, after 1 h) was 45.11% and the melting point was 215 to 218 °C. The “Inclined Plane Test (%)” value ([3]; dose 2.5 mg/kg i.p., 30 min) was 20.11 ± 1.45%, the “Inclined Plane Test (%)” value ([3]; dose 2.5 mg/kg i.p., 60 min) was 26.23 ± 1.66% and the “Inclined Plane Test (%)” value ([3]; dose 2.5 mg/kg i.p., 90 min) was 27.45 ± 1.23%. For the same molecule, the “Inclined Plane Test (%)” value ([3]; dose 5 mg/kg i.p., 30 min) was 27.34 ± 1.66%, the “Inclined Plane Test (%)” value ([3]; dose 5 mg/kg i.p., 60 min) was 33.09 ± 1.60% and the “Inclined Plane Test (%)” value ([3]; dose 5 mg/kg i.p., 90 min) was 34.09 ± 1.30%. The “Inclined Plane Test (%)” value ([3]; dose 10 mg/kg i.p., 30 min) was 33.98 ± 1.40%, the “Inclined Plane Test (%)” value ([3]; dose 10 mg/kg i.p., 60 min) was 38.08 ± 1.55% and the “Inclined Plane Test (%)” value ([3]; dose 10 mg/kg i.p., 90 min) was 39.43 ± 1.28%. The “Inclined Plane Test (%)” value ([3]; dose 15 mg/kg i.p., 30 min) was 44.53 ± 1.43%, the “Inclined Plane Test (%)” value ([3]; dose 15 mg/kg i.p., 60 min) was 50.94 ± 1.50% and the “Inclined Plane Test (%)” value ([3]; dose 15 mg/kg i.p., 90 min) was 51.52 ± 1.20%. The “Inclined Plane Test (%)” value ([3]; dose 20 mg/kg i.p., 30 min) was 52.09 ± 1.30%, the “Inclined Plane Test (%)” value ([3]; dose 20 mg/kg i.p., 60 min) was 59.34 ± 1.45% and the “Inclined Plane Test (%)” value ([3]; dose 20 mg/kg i.p., 90 min) was 60.88 ± 1.19%. For the same molecule, the IC50 (HepG2) was 20.8 ± 0.38 µM and the IC50 (NCI-H226) was 64.98 ± 0.11 µM.
